The data set can be described thus: mn = molality of the nth substance listed, in mol/kg. The conditions noted are these: 298.15 K, 101 kPa, Liquid; for molar conductivity: Alternating current cell with electrodes; for mass density: Pycnometric method.

± gives the expanded uncertainty stated by the source.

In the NIST ThermoML archive (doi:10.1021/je800622e) one finds molar conductivity and mass density data, which are given here for two compounds.

The term mass density denotes the mass of a sample divided by its volume. As for `CCCCn1cc[n+](C)c1.F[B-](F)(F)F` [1-butyl-3-methylimidazolium tetrafluoroborate] + O, the molar conductivity worked out at 0.00906 ± 0.00054 S·m2/mol (m1 = 0.05); 0.0085 ± 0.00051 S·m2/mol (m1 = 0.1); 0.008 ± 0.00048 S·m2/mol (m1 = 0.15); 0.00714 ± 0.00043 S·m2/mol (m1 = 0.25); 0.00547 ± 0.00033 S·m2/mol (m1 = 0.5); 0.00419 ± 0.00025 S·m2/mol (m1 = 0.75). Moreover, the molar conductivity (m1 = 1) was 0.00389 ± 0.00023 S·m2/mol. For the same compound, the mass density (m1 = 0.05) is listed as 999 ± 0.89 kg/m3; the mass density (m1 = 0.1) is on record as 1000.85 ± 0.89 kg/m3; the mass density (m1 = 0.15) came to 1002.63 ± 0.9 kg/m3; the mass density (m1 = 0.25) is reported as 1006.1 ± 0.9 kg/m3; the mass density (m1 = 0.5) was found to be 1014.2 ± 0.91 kg/m3; the mass density (m1 = 0.75) was found to be 1021.57 ± 0.91 kg/m3. Also, the mass density (m1 = 1) is given as 1028.25 ± 0.92 kg/m3.
As for `OC[C@H]1O[C@@](CO)(O[C@H]2O[C@H](CO)[C@@H](O)[C@H](O)[C@H]2O)[C@@H](O)[C@@H]1O` [D-sucrose] + O, the mass density was 999.72 ± 0.88 kg/m3 (m1 = 0.02); 1004.87 ± 0.89 kg/m3 (m1 = 0.06); 1009.9 ± 0.89 kg/m3 (m1 = 0.1); 1016.06 ± 0.9 kg/m3 (m1 = 0.15); 1022.12 ± 0.91 kg/m3 (m1 = 0.2); 1027.95 ± 0.91 kg/m3 (m1 = 0.25).
